This assay concerns VEEV TC-83 infected cells, virus titer reduction. In words: VEEV titer reduction by compounds, cell-based, TC-83 strain, virus titer (AID 602307). The note with it: for log virus titer change: stronger effect = lower value.

Active and inactive are the calls of the source. No rule for the calls is given here.

For the molecule `O=C(Cc1cccs1)Nc1nc2ccccc2s1`, the log virus titer change (at 5 µM) was -0.238 (inactive).
Take `O=C(Oc1ccc2ccccc2c1Br)N1CCCCCC1`: the result was active. This molecule gave a log virus titer change (titer change, at 10 µM) of -2.09.
`O=C(Cc1cccs1)Nc1nccs1`: under “at 5 µM”, the log virus titer change was -0.062 (inactive).
`O=c1c2cc([N+](=O)[O-])ccc2nc(CN2CCN(c3ccccc3)CC2)n1-c1ccccc1F`: the outcome was active. Also, for the setting “titer change, at 10 µM”, the log virus titer change is -1.3.
Take `CC(C)N1CCN(Cc2nc3ccc([N+](=O)[O-])cc3c(=O)n2-c2ccccc2F)CC1`: the log virus titer change (at 5 µM) was 0.041 (inactive).
On the same count and under the same terms, next, `O=C(Nc1nc2c(s1)CCCC2)c1cccs1`: -0.12 (inactive).
For the molecule `O=c1nc(Nc2ccc(OCc3ccccc3)cc2)sc2ncccc12`, the result was active. This molecule also returned a log virus titer change (titer change, at 10 µM) of -3.43.
For the molecule `O=C(Cc1ccccc1)Nc1nc2c(s1)CCCC2`, where the note is “at 5 µM”, the log virus titer change is -0.01 (inactive).
`O=C(Cc1cccs1)Nc1nc2c(s1)CCCC2`: the result was active. Also, the log virus titer change (titer change, at 10 µM) is -2.14.
As for `CN(C(=O)Cc1cccs1)c1nc2c(s1)CCCC2`, the log virus titer change (at 5 µM) was 0.281 (inactive).
Still for that read-out and setting: next, `O=c1c2cc([N+](=O)[O-])ccc2nc(CN2CCOCC2)n1-c1ccccc1F`: 0.297 (inactive).
With `CCOC(=O)c1ccc(Nc2nc(=O)c3cccnc3s2)cc1`, the outcome was active. For the setting “titer change, at 10 µM”, this molecule had a log virus titer change of -3.31.
On to `Cc1cc(Cc2cc(C)cc(C(C)(C)C)c2O)c(O)c(Cc2cc(C)cc(C(C)(C)C)c2O)c1`, for which the log virus titer change (at 5 µM) was -0.734 (inactive).
As to `Clc1ccc2nnnc(-c3ccccc3)c2c1`, the outcome was active. The log virus titer change (titer change, at 10 µM) was -4.36.
For `CN1CCN(Cc2nc3ccc([N+](=O)[O-])cc3c(=O)n2-c2ccccc2F)CC1`, under “at 5 µM”, the log virus titer change was under -6.36.
Consider `Cc1ccccc1C(=O)Nc1ccc2c(c1)CCCN2C(=O)c1cccs1`, for which the result was active. Under “titer change, at 10 µM”, this molecule registered a log virus titer change of -2.04.
As to `CCN1CCN(Cc2nc3ccc([N+](=O)[O-])cc3c(=O)n2-c2ccccc2F)CC1`, the log virus titer change runs as follows: (at 5 µM) under -6.36; (titer change, at 10 µM) -5.8.

For the origin of these results see PubChem BioAssay AID602307 (Southern Research Specialized Biocontainment Screening …, 2012).
